Source: patent publication US8785470B2, “Heterocyclic compounds and uses thereof” (Infinity Pharmaceuticals, Inc., priority 2011, dated 2014)
Where two headings read alike, the source gives them in different places.

Key:
[1] = target: T1, PI3Kδ (Homo sapiens, UniProt O00329); assay: PI3-Kinase HTRF assay, PI3Kδ; assay type: biochemical; conditions: bins Greater than 10 μM and Greater than 1 μM to 10 μM; 10 μM ATP, PIP2 at 10 μM
T1 construct: purchased Millipore Corporation 14-604-K
Description: A PI3-Kinase HTRF® assay kit (cat No. 33-016) purchased from Millipore Corporation was used to screen compounds provided herein. This assay used specific, high affinity binding of the GRPI pleckstrin homology (PH) domain to PIP3, the product of a Class 1A or 1B PI3 Kinase acting on its physiological substrate PIP2. During the detection phase of the assay, a complex was generated between the GST-tagged PH domain and biotinylated short chain PIP3. The biotinylated PIP3 and the GST-tagged PH domain recruited fluorophores (Streptavidin-Allophycocyanin and Europium-labeled anti-GST respectively) to form the fluorescence resonance energy transfer (FRET) architecture, generating a stable time-resolved FRET signal. The FRET complex was disrupted in a competitive manner by non-biotinylated PIP3, a product formed in the PI3 Kinase assay.
PI3 Kinase α, β, γ and δ activity was assayed using the PI3 Kinase HTRF® assay kit (catalogue No. 33-016) purchased from Millipore Corporation. Purified recombinant PI3Kα (catalogue No. 14-602-K), PI3Kβ (catalogue No. 14-603-K), PI3Kγ (catalogue No. 14-558-K) and PI3Kδ (catalogue No. 14-604-K) were obtained from Millipore Corporation. Purified recombinant PI3K enzyme was used to catalyze the phosphorylation of phosphatidylinositol 4,5-bisphosphate (PIP2 at 10 μM) to phosphatidylinositol 3,4,5-trisphosphate (PIP3) in the presence of 10 μM ATP. The assay was carried out in 384-well format and detected using a Perkin Elmer EnVision Xcite Multilabel Reader. Emission ratios were converted into percent inhibitions and imported into GraphPad Prism software. The concentration necessary to achieve inhibition of enzyme activity by 50% (IC50) was calculated using concentrations ranging from 20 μM to 0.1 nM (12-point curve). IC50 values were determined using a nonlinear regression model available in GraphPad Prism 5. […]

[2] = test system: Balb/c splenic B cells; assay: B cell activation and proliferation assay; assay type: cell-based; conditions: Mus musculus, Greater than 1 μM to 10 μM, read-out: B cell proliferation EC50
Procedure, shortened: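 Read-out is metabolic activity by Alamar Blue reduction (5 h, 560Ex/590Em) after 72 h at 37° C, reported as IC50 or EC50. Compound (0.2% DMSO) was added 30 min before a cocktail holding 10 μg/ml LPS or 5 μg/ml F(ab′)2 anti-IgM with 2 ng/ml mouse IL4. Cells were purified Balb/c splenic B cells, 50.000 per well.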

[3] = target: T2, PI3Kα (Homo sapiens, UniProt P42336); assay: PI3-Kinase HTRF assay, PI3Kα; assay type: biochemical; conditions: bins Greater than 10 μM and Greater than 1 μM to 10 μM; 10 μM ATP, PIP2 at 10 μM; read-out: IC50 P13Kα
T2 construct: purchased Millipore Corporation 14-602-K
Procedure, shortened: (§1)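 Competitive time-resolved FRET readout of PIP3 formed from 10 μM PIP2 with 10 μM ATP, 1 h at room temperature, by each recombinant human isoform (α, β, γ, δ; 0.25-0.3 μg/ml). Compound (2% DMSO final) was preincubated 15 min with enzyme and substrate; IC50 fitted over 20 μM–0.1 nM, 12 points.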

[4] = target: T3, PI3Kβ (Homo sapiens, UniProt P42338); assay: PI3-Kinase HTRF assay, PI3Kβ; assay type: biochemical; conditions: bins Greater than 10 μM and Greater than 1 μM to 10 μM; 10 μM ATP, PIP2 at 10 μM
T3 construct: purchased Millipore Corporation 14-603-K
Procedure, shortened: as §1

[5] = test system: phospho-AKT in RAJI cells (PI3Kδ); assay: PI3Kδ selective assay, phospho-AKT in RAJI cells; assay type: cell-based; conditions: RAJI cells stimulated with anti-human IgM; read-out: IC50 for phospho-AKT, RAJI cell model
Description: A compound's ability in selectively inhibiting PI3Kδ can be assessed using RAJI cells, i.e., B lymphocyte cells derived from lymphoma patients. Briefly, serum-starved RAJI cells are stimulated with anti-human IgM, thereby causing signaling through the B-cell receptors, as described in, for example, He et al., Leukemia Research (2009) 33: 798-802. B-cell receptor signaling is important for the activation, differentiation, and survival of B cells and certain B-cell derived cancers. Reduction of phospho-AKT is indicative of compounds that may inhibit B-cell proliferation and function in certain diseases. By monitoring the reduction of phospho-AKT in stimulated RAJI cells (using for example, phospho-AKT antibodies), a compound's potential efficacy in selectively inhibiting PI3Kδ can be assessed.

[6] = test system: phospho-AKT in RAW 264.7 cells (PI3Kγ); assay: PI3Kγ selective assay, phospho-AKT in RAW 264.7 cells; assay type: cell-based; conditions: Mus musculus, RAW264.7, stimulated with C5a, read-out: IC50 for phospho-AKT, RAW 264.7 cell model
Description: A compound's ability in selectively inhibiting PI3Kγ can be assessed using RAW264.7 macrophages. Briefly, serum-starved PAW264.7 cells are stimulated with a known GPCR agonist C5a. (See, e.g., Camps et al., Nature Medicine (2005) 11(9): 936-943). Cells can be treated with test compounds prior to, simultaneously with, or subsequent to the stimulation by C5a. RAW 264.7 cells respond to the complement component fragment C5a through activation of the C5a receptor, and the C5a receptor activates macrophages and induces cell migration. Test compounds' ability to inhibit C5a-mediated AKT phosphorylation is indicative of selective inhibition of PI3Kγ. Thus, by monitoring the reduction of phospho-AKT in stimulated RAW 264.7 cells (using for example, phospho-AKT antibodies), a compound's potential efficacy in selectively inhibiting PI3Kγ can be assessed.

[7] = ranges less than 100 nM and between 100 nM and 1 μM (given as 100-1000)

T3 sequence (P42338 whole entry): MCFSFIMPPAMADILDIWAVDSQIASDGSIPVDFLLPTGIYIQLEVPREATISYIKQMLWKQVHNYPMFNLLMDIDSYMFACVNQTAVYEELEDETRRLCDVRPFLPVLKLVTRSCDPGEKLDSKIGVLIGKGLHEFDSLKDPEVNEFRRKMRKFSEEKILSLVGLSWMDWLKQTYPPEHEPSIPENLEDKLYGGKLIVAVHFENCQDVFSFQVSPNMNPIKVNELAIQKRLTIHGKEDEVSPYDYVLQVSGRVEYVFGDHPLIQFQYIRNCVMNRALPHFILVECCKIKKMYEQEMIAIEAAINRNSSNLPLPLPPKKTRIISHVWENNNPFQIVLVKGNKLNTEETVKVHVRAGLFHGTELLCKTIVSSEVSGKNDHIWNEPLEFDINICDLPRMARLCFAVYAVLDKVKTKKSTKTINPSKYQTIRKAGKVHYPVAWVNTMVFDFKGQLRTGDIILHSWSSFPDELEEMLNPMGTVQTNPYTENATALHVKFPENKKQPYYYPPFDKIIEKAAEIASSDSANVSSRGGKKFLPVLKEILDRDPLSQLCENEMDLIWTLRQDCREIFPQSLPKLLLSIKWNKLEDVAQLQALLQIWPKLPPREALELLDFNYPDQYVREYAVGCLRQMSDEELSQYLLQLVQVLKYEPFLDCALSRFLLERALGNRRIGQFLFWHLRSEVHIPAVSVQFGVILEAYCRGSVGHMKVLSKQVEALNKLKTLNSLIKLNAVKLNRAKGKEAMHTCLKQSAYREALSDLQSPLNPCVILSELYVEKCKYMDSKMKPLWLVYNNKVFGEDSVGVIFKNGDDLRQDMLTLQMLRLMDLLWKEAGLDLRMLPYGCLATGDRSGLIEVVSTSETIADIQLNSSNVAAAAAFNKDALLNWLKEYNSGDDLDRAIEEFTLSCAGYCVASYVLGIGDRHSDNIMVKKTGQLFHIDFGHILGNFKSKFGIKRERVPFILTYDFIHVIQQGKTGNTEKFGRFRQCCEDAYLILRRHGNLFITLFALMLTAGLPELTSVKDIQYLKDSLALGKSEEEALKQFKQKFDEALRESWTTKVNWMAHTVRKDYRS
T3 sequence (P27986 whole entry partner): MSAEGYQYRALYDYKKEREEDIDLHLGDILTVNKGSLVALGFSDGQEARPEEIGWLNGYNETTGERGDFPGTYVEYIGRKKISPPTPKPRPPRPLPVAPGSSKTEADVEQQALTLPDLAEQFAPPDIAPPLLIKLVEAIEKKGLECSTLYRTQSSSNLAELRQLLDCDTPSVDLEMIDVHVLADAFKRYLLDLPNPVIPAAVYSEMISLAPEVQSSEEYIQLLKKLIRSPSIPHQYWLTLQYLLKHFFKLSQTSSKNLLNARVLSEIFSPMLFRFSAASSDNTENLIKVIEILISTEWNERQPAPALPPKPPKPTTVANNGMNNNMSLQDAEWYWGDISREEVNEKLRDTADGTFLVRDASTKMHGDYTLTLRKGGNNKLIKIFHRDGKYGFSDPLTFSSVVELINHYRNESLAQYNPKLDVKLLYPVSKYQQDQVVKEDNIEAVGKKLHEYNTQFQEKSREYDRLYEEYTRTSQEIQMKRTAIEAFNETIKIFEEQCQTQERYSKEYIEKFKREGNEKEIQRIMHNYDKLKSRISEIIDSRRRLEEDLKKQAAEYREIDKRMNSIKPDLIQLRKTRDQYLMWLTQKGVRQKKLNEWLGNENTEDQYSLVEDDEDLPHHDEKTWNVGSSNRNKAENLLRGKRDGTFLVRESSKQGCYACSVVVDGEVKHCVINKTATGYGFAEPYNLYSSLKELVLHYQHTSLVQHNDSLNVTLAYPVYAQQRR
T2 sequence (P42336 whole entry): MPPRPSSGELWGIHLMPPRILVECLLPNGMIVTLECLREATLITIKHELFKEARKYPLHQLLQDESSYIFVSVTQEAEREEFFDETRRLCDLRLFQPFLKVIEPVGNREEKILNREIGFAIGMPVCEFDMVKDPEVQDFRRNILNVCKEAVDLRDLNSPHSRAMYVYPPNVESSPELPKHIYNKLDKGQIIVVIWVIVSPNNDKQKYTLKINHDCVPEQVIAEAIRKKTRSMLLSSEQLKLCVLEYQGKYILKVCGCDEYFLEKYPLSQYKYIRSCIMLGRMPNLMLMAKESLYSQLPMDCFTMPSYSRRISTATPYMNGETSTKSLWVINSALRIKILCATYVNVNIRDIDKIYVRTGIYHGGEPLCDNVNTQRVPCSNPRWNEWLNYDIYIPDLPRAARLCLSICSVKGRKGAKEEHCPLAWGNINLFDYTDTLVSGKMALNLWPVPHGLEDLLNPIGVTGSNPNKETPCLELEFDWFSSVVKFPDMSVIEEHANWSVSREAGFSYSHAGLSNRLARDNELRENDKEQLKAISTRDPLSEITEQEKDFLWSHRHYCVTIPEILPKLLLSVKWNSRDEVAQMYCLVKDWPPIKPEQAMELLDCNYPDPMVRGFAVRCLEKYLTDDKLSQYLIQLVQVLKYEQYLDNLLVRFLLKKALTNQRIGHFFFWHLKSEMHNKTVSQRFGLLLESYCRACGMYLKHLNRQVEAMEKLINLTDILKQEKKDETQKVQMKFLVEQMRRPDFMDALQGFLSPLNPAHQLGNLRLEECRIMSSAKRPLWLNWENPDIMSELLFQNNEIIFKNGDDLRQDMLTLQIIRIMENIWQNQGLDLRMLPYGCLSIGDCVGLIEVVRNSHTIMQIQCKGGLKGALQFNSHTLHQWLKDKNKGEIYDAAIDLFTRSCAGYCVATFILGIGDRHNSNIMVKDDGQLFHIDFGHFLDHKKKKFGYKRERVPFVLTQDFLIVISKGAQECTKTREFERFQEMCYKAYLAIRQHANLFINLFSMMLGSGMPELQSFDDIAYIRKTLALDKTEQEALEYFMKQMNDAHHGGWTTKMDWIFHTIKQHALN
T2 sequence (P27986 whole entry partner): as the sequence (P27986 whole entry partner) above
T1 sequence (O00329 whole entry): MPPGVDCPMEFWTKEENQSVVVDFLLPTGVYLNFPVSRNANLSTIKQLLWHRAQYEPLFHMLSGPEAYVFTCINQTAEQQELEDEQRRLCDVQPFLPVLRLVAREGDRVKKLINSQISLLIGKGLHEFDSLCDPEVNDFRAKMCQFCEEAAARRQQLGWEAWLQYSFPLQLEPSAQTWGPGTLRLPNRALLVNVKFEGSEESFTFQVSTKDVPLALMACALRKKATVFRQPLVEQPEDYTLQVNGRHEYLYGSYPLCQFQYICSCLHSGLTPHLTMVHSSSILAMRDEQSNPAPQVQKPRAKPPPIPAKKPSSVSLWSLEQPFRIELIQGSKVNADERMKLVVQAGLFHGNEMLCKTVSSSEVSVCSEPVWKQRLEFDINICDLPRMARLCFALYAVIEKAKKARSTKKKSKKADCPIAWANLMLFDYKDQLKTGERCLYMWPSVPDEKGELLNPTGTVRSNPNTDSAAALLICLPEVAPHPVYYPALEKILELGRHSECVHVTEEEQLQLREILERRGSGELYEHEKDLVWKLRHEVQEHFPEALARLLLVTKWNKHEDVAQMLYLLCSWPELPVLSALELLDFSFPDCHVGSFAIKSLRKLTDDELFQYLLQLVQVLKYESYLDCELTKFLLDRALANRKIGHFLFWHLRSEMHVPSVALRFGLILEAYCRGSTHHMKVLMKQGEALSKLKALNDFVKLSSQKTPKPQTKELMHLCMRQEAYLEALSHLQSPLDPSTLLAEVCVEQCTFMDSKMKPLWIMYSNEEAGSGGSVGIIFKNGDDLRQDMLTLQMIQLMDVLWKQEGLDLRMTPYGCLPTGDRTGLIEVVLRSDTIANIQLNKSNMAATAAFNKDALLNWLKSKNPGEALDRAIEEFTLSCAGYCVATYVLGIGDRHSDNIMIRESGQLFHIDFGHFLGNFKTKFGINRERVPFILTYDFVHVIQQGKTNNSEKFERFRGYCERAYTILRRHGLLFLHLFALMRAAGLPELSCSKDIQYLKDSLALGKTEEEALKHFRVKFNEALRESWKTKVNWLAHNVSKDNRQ
T1 sequence (P27986 whole entry partner): as the sequence (P27986 whole entry partner) above

| SMILES | IC50 [1] [nM] | IC50 [3] [nM] | IC50 [4] [nM] | IC50 [5] [nM] | IC50 [6, 7] [nM] | IC50 ([6]; range between 1 μM and 10 μM) [nM] | EC50 [2] [nM] |
| --- | --- | --- | --- | --- | --- | --- | --- |
| C[C@H](Nc1nc(N)ncc1-c1ccccc1)c1cc2cccc(Cl)c2c(=O)n1-c1ccccc1 [Compound 82, (S)-3-(1-(2-amino-5-phenylpyrimidin-4-ylamino)ethyl)-8-chloro-2-phenylisoquinolin-1(2H)-one] | 1000 to 10000 | – | – | – | – | – | 1000 to 10000 |
| CC(C)n1c([C@H](C)Nc2ncnc(N)c2C#N)cc2cccc(Cl)c2c1=O [Compound 329] | – | 1000 to 10000 | 1000 to 10000 | < 100 | 100 to 1000 | – | – |
| C[C@H](Nc1nc(N)ncc1C#N)c1cc2cccc(Cl)c2c(=O)n1C1CC1 [Compound 104] | 1000 to 10000 | – | 1000 to 10000 | < 100 | 100 to 1000 | – | – |
| C[C@H](Nc1nc(N)ncc1C#N)c1cc2cccc(Cl)c2c(=O)n1-c1ccc(C#N)cc1 [Compound 220] | 1000 to 10000 | – | 1000 to 10000 | – | – | – | – |
| C[C@H](Nc1nc(N)ncc1C#N)c1cc2cccc(Cl)c2c(=O)n1-c1c(F)cccc1F [Compound 279] | 1000 to 10000 | – | 1000 to 10000 | < 100 | < 100 | – | – |
| COc1cnc(-c2cccc3cc([C@H](C)Nc4nc(N)ncc4C#N)n(-c4ccccc4)c(=O)c23)nc1 [Compound 228] | 1000 to 10000 | – | – | – | – | – | – |
| C[C@H](Nc1nc(N)ncc1S(C)(=O)=O)c1cc2cccc(Cl)c2c(=O)n1-c1ccccc1 [Compound 85, (S)-3-(1-(2-amino-5-(methylsulfonyl)pyrimidin-4-ylamino)ethyl)-8-chloro-2-phenylisoquinolin-1(2H)-one] | 1000 to 10000 | – | – | – | – | – | – |
| N#Cc1cnc(N)nc1NCc1cc2cccc(Cl)c2c(=O)n1-c1ccccc1 [Compound 241] | – | 1000 to 10000 | 1000 to 10000 | < 100 | < 100 | – | – |
| C[C@H](Nc1nc(N)ncc1-c1cccc(S(C)(=O)=O)c1)c1cc2cccc(Cl)c2c(=O)n1-c1ccccc1 [Compound 397] | – | 1000 to 10000 | 1000 to 10000 | < 100 | < 100 | – | – |
| C[C@H](Nc1nc(N)ncc1-c1cccc(NS(C)(=O)=O)c1)c1cc2cccc(Cl)c2c(=O)n1-c1ccccc1 [Compound 399] | – | 1000 to 10000 | 1000 to 10000 | < 100 | < 100 | – | – |
| C[C@H](Nc1nc(N)ncc1-c1cncc(S(C)(=O)=O)c1)c1cc2cccc(Cl)c2c(=O)n1-c1ccccc1 [Compound 401] | 1000 to 10000 | 1000 to 10000 | 1000 to 10000 | < 100 | 100 to 1000 | – | – |
| COc1cccc(-n2c([C@H](C)Nc3nc(N)ncc3C#N)cc3cccc(Cl)c3c2=O)c1 [Compound 288] | – | – | 1000 to 10000 | < 100 | < 100 | – | – |

Further lines, with some results ahead:

| IC50 [1] [nM] | IC50 [3] [nM] | IC50 [4] [nM] | IC50 [5] [nM] | IC50 [6, 7] [nM] | IC50 ([6]; range between 1 μM and 10 μM) [nM] | SMILES | EC50 [2] [nM] |
| --- | --- | --- | --- | --- | --- | --- | --- |
| – | – | 1000 to 10000 | < 100 | < 100 | – | Cc1ccc(NS(C)(=O)=O)cc1-c1cnc(N)nc1N[C@@H](C)c1cc2cccc(Cl)c2c(=O)n1-c1ccccc1 [Compound 412] | – |
| 1000 to 10000 | – | – | – | – | – | C[C@H](Nc1nc(N)ncc1C(=O)N1CCC1)c1cc2cccc(Cl)c2c(=O)n1-c1ccccc1 [Compound 433] | – |
| 1000 to 10000 | – | – | – | – | – | CCN(C)C(=O)c1cnc(N)nc1N[C@@H](C)c1cc2cccc(-c3ccnc(OC)c3)c2c(=O)n1-c1ccccc1 [Compound 155] | – |
| 1000 to 10000 | 1000 to 10000 | 1000 to 10000 | < 100 | – | 1000 to 10000 | C[C@H](Nc1nc(N)ncc1C#N)c1cc2cccc(-c3cncc(NS(C)(=O)=O)c3)c2c(=O)n1-c1ccccc1 [Compound 191] | – |
| – | 1000 to 10000 | 1000 to 10000 | < 100 | < 100 | – | C[C@H](Nc1nc(N)ncc1-c1cccc(S(=O)(=O)C2CC2)c1)c1cc2cccc(Cl)c2c(=O)n1-c1ccccc1 [Compound 417] | – |
| 1000 to 10000 | – | – | – | – | – | COc1cc(-c2cccc3cc([C@H](C)Nc4nc(N)ncc4C(=O)N4CCC4)n(-c4ccccc4)c(=O)c23)ccn1 [Compound 154] | – |
| 1000 to 10000 | – | 1000 to 10000 | < 100 | < 100 | – | C[C@H](Nc1nc(N)ncc1C#N)c1cc2cccc(Cl)c2c(=O)n1-c1ccc(F)c(F)c1 [Compound 270] | – |
| 1000 to 10000 | – | – | – | – | – | COc1cccc2cc([C@H](C)Nc3nc(N)ncc3C#N)n(-c3ccccc3)c(=O)c12 [Compound 148] | – |
| 1000 to 10000 | 1000 to 10000 | 1000 to 10000 | < 100 | – | 1000 to 10000 | C[C@H](Nc1nc(N)ncc1C#N)c1cc2cccc(-c3ccc(=O)n(C)c3)c2c(=O)n1-c1ccon1 [Compound 338] | – |
| 1000 to 10000 | – | – | – | – | – | C[C@H](Nc1cc(Cl)ncc1C#N)c1cc2cccc(Cl)c2c(=O)n1-c1ccccc1 [Compound 429] | – |
| 1000 to 10000 | – | 1000 to 10000 | < 100 | – | 1000 to 10000 | C[C@H](Nc1nc(N)ncc1-c1ccc(S(C)(=O)=O)nc1)c1cc2cccc(Cl)c2c(=O)n1-c1ccccc1 [Compound 402] | – |
| – | 1000 to 10000 | 1000 to 10000 | < 100 | < 100 | – | C[C@H](Nc1nc(N)ncc1-c1cccc(N(C)S(C)(=O)=O)c1)c1cc2cccc(Cl)c2c(=O)n1-c1ccccc1 [Compound 408] | – |
| – | – | 1000 to 10000 | < 100 | < 100 | – | C[C@H](Nc1nc(N)ncc1-c1cnc(S(C)(=O)=O)s1)c1cc2cccc(Cl)c2c(=O)n1-c1ccccc1 [Compound 403] | – |
| – | – | 1000 to 10000 | < 100 | < 100 | – | COc1ncc(-c2cnc(N)nc2N[C@@H](C)c2cc3cccc(Cl)c3c(=O)n2-c2ccccc2)s1 [Compound 382] | – |
| – | 1000 to 10000 | 1000 to 10000 | < 100 | 100 to 1000 | – | CCOc1nc(-c2cnc(N)nc2N[C@@H](C)c2cc3cccc(-c4cnc(OC)nc4)c3c(=O)n2-c2ccccc2)cs1 [Compound 396] | – |
| 1000 to 10000 | – | 1000 to 10000 | < 100 | < 100 | – | COc1cc(-n2c([C@H](C)Nc3nc(N)ncc3C#N)cc3cccc(Cl)c3c2=O)ccc1F [Compound 291] | – |
| – | 1000 to 10000 | 1000 to 10000 | < 100 | < 100 | – | C[C@H](Nc1nc(N)ncc1-c1cccc(S(C)(=O)=O)c1)c1cc2cccc(C(F)(F)F)c2c(=O)n1-c1ccccc1 [Compound 428] | – |
